Reference: patent US12709609B2, “Crystalline form of Selinexor” (Karyopharm Therapeutics Inc., priority 2020, dated 2026)

How the values were obtained:
[1] = Thermogravimetric analysis (TGA); format: physicochemical; details: from ambient temperature to about 200° C., followed by sample degradation
Procedure: TGA data were collected on a TA Instruments Q500 TGA, equipped with a 16 position auto-sampler. Typically, 5-10 mg of each sample was loaded onto a pre-tared aluminum DSC pan and heated to 10° C./min from ambient temperature to 350° C. A nitrogen purge at 60 ml/min was maintained over the sample. The instrument control software was Advantage for Q Series and Thermal Advantage and the data were analysed using Universal Analysis or TRIOS

[2] = Dynamic vapor sorption (DVS) moisture sorption isotherm; format: physicochemical
Procedure: Sorption isotherms were obtained using a SMS DVS Intrinsic moisture sorption analyser, controlled by DVS Intrinsic Control software. The sample temperature was maintained at 25° C. by the instrument controls. The humidity was controlled by mixing streams of dry and wet nitrogen, with a total flow rate of 200 ml/min. The relative humidity was measured by a calibrated Rotronic probe (dynamic range of 1.0-100% RH), located near the sample. The weight change, (mass relaxation) of the sample as a function of % RH was constantly monitored by a microbalance (accuracy±0.005 mg). Typically, 5 to 30 mg of sample was placed in a tared mesh stainless steel basket under ambient conditions. The sample was loaded and unloaded at 40% RH and 25° C. (typical room conditions). A moisture sorption isotherm was performed as outlined below (2 scans per complete cycle). The standard isotherm was performed at 25° C. at 10% RH intervals over a 0-90% RH range. Typically, a double cycle (4 scans) was carried out. Data analysis was carried out within Microsoft Excel using the DVS Analysis Suite. [table] The sample was recovered after completion of the isotherm and re-analysed by XRPD.

O=C(/C=C\n1cnc(-c2cc(C(F)(F)F)cc(C(F)(F)F)c2)n1)NNc1cnccn1 [crystalline Form ZL, (Z)-3-(3-(3,5-bis(trifluoromethyl)phenyl)-1H-1,2,4-triazol-1-yl)-N′-(pyrazin-2-yl) acrylohydrazide]
TGA weight change on heating [1]: No weight change
XRPD pattern after the DVS cycle compared with XRPD prior to the DVS cycle (form stability) ([2]; after DVS cycle 0-90% RH): identical
DVS weight gain ([2]; at 90% RH, 25° C., two DVS cycles): about 0.16%
moisture uptake behaviour in DVS ([2]; over 0-90% RH range): gradual reversible uptake
